Results: patent US20220378791A1, “JAK1 INHIBITORS FOR THE TREATMENT OF MYELODYSPLASTIC SYNDROMES” (Incyte Corporation, priority 2014, published 2022)

How the values were obtained:
[1] = biological target: T1, human JAK2 (a.a. 828-1132) (Homo sapiens, UniProt O60674); experiment: In vitro JAK kinase assay (HTRF), JAK2; type: biochemical; details: IC50 ratio, selectivity for JAK1 over JAK2, 1 mM ATP
T1 construct: JAK2 (a.a. 828-1132); His tag (N); made in house; host or cells: insect cells (baculovirus)
T1 sequence (O60674 828-1132): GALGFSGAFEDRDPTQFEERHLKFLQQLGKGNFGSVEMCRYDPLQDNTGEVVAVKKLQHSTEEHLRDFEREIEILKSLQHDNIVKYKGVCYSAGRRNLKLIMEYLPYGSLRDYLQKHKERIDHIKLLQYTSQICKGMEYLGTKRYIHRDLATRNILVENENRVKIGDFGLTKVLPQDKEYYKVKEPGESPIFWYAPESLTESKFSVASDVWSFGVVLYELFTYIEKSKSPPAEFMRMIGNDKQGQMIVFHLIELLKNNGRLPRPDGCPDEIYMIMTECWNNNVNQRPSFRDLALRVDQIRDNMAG
Description: (§1) Compounds herein were tested for inhibitory activity of JAK targets according to the following in vitro assay described in Park et al., Analytical Biochemistry 1999, 269, 94-104. The catalytic domains of human JAK1 (a.a. 837-1142), JAK2 (a.a. 828-1132) and JAK3 (a.a. 781-1124) with an N-terminal His tag were expressed using baculovirus in insect cells and purified. The catalytic activity of JAK1, JAK2 or JAK3 was assayed by measuring the phosphorylation of a biotinylated peptide. The phosphorylated peptide was detected by homogenous time resolved fluorescence (HTRF). […] Reactions were carried out at room temperature for 1 hour and then stopped with 20 μL 45 mM EDTA, 300 nM SA-APC, 6 nM Eu-Py20 in assay buffer (Perkin Elmer, Boston, Mass.). Binding to the Europium labeled antibody took place for 40 minutes and HTRF signal was measured on a Fusion plate reader (Perkin Elmer, Boston, Mass.). See Table 2 for data for compounds of the examples as tested by the assay of Example A at 1 mM ATP.

[2] = biological target: T2, human JAK1 (a.a. 837-1142) (Homo sapiens, UniProt P23458); experiment: In vitro JAK kinase assay (HTRF), JAK1; type: biochemical; details: 1 mM ATP
T2 construct: human JAK1 (a.a. 837-1142); His tag (N); made in house; host or cells: insect cells (baculovirus)
T2 sequence (P23458 849-1154): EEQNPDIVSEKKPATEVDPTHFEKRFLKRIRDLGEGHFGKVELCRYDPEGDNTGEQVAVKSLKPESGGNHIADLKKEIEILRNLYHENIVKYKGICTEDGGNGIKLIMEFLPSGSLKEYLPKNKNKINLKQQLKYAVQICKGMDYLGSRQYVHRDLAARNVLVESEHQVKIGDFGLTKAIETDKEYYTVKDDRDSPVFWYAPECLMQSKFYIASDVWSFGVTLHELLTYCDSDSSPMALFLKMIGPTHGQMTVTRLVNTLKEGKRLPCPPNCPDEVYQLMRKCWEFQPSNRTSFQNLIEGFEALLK
Description: as §1, with “Mass.).” for “Mass.). See Table 2 for data for compounds of the examples as tested by the assay of Example A at 1 mM ATP.”

`N#CC[C@]1(n2cc(-c3ncnc4[nH]ccc34)cn2)C[C@H](N2CCC(Oc3cc(CCO)cc(C(F)(F)F)n3)CC2)C1` [Example 24, {trans-3-(4-{[4-(2-hydroxyethyl)-6-(trifluoromethyl)pyridin-2-yl]oxy}piperidin-1-yl)-1-[4-(7H-pyrrolo[2,3-d]pyrimidin-4-yl)-1H-pyrazol-1-yl]cyclobutyl}acetonitrile] was tested, and the JAK2/JAK1 [1] was >10 and the IC50 [2] was < 10 nM.
`C[C@@H](CO)NCc1cc(OC2CCN([C@H]3C[C@](CC#N)(n4cc(-c5ncnc6[nH]ccc56)cn4)C3)CC2)nc(C(F)(F)F)c1` [Example 21, {trans-3-(4-{[4-({[(1S)-2-hydroxy-1-methylethyl]amino}methyl)-6-(trifluoromethyl)pyridin-2-yl]oxy}piperidin-1-yl)-1-[4-(7H-pyrrolo[2,3-d]pyrimidin-4-yl)-1H-pyrazol-1-yl]cyclobutyl}acetonitrile] was tested, and the JAK2/JAK1 [1] was >10 and the IC50 [2] was < 10 nM.
With `N#CCC(C1CCN(c2cccc(Cl)n2)C1)n1cc(-c2ncnc3[nH]ccc23)cn1` (single isomer, unassigned) [Example 1, 3-[1-(6-chloropyridin-2-yl)pyrrolidin-3-yl]-3-[4-(7H-pyrrolo[2,3-d]pyrimidin-4-yl)-1H-pyrazol-1-yl]propanenitrile] the JAK2/JAK1 [1] was >10 and the IC50 [2] was < 10 nM.
`N#CCC1(n2cc(-c3ncnc4[nH]ccc34)cn2)CN([C@H]2CC[C@@H](Oc3cc(CCO)nc(C(F)(F)F)n3)CC2)C1` [Example 16, {1-(cis-4-{[6-(2-hydroxyethyl)-2-(trifluoromethyl)pyrimidin-4-yl]oxy}cyclohexyl)-3-[4-(7H-pyrrolo[2,3-d]pyrimidin-4-yl)-1H-pyrazol-1-yl]azetidin-3-yl}acetonitrile] was tested, and the JAK2/JAK1 [1] was >10 and the IC50 [2] was < 10 nM.
For `N#CCC(C1CCN(c2nc3cccnc3o2)C1)n1cc(-c2ncnc3[nH]ccc23)cn1` (single isomer, unassigned) [Example 2, 3-(1-[1,3]oxazolo[5,4-b]pyridin-2-ylpyrrolidin-3-yl)-3-[4-(7H-pyrrolo[2,3-d]pyrimidin-4-yl)-1H-pyrazol-1-yl]propanenitrile], the JAK2/JAK1 [1] was >10 and the IC50 [2] was < 10 nM.
In the case of `C[C@H](NC(=O)c1cc(F)c(N2CC(CC#N)(n3cc(-c4ncnc5[nH]ccc45)cn3)C2)cc1F)C(F)(F)F` [Example 14, 4-{3-(Cyanomethyl)-3-[4-(7H-pyrrolo[2,3-d]pyrimidin-4-yl)-1H-pyrazol-1-yl]azetidin-1-yl}-2,5-difluoro-N-[(1S)-2,2,2-trifluoro-1-methylethyl]benzamide], the JAK2/JAK1 [1] is reported as >10 and the IC50 [2] is reported as < 10 nM.
For `CCNCc1cc(O[C@H]2CC[C@@H](N3CC(CC#N)(n4cc(-c5ncnc6[nH]ccc56)cn4)C3)CC2)nc(C(F)(F)F)c1` [Example 17, {1-(cis-4-{[4-[(ethylamino)methyl]-6-(trifluoromethyl)pyridin-2-yl]oxy}cyclohexyl)-3-[4-(7H-pyrrolo[2,3-d]pyrimidin-4-yl)-1H-pyrazol-1-yl]azetidin-3-yl}acetonitrile], the JAK2/JAK1 [1] was >10 and the IC50 [2] was < 10 nM.
For `N#CC[C@]1(n2cc(-c3ncnc4[nH]ccc34)cn2)C[C@H](N2CCC(Oc3cc(CN4CCC[C@H]4CO)cc(C(F)(F)F)n3)CC2)C1` [Example 10, {trans-3-(4-{[4-{[(2S)-2-(hydroxymethyl)pyrrolidin-1-yl]methyl}-6-(trifluoromethyl)pyridin-2-yl]oxy}piperidin-1-yl)-1-[4-(7H-pyrrolo[2,3-d]pyrimidin-4-yl)-1H-pyrazol-1-yl]cyclobutyl}acetonitrile], the JAK2/JAK1 [1] was >10 and the IC50 [2] was < 10 nM.
`C[C@@H](O)CNCc1cc(OC2CCN([C@H]3C[C@](CC#N)(n4cc(-c5ncnc6[nH]ccc56)cn4)C3)CC2)nc(C(F)(F)F)c1` [Example 22, {trans-3-(4-{[4-({[(2R)-2-hydroxypropyl]amino}methyl)-6-(trifluoromethyl)pyridin-2-yl]oxy}piperidin-1-yl)-1-[4-(7H-pyrrolo[2,3-d]pyrimidin-4-yl)-1H-pyrazol-1-yl]cyclobutyl}acetonitrile] was tested, and the JAK2/JAK1 [1] was >10 and the IC50 [2] was < 10 nM.
In the case of `N#CCC(CN1CCN(C(=O)c2ccc(C#N)cc2F)CC1)n1ccc(-c2ncnc3[nH]ccc23)c1` (single isomer, unassigned) [Example 4, 4-[(4-{3-cyano-2-[3-(7H-pyrrolo[2,3-d]pyrimidin-4-yl)-1H-pyrrol-1-yl]propyl}piperazin-1-yl)carbonyl]-3-fluorobenzonitrile], the JAK2/JAK1 [1] is reported as >10 and the IC50 [2] is reported as < 10 nM.
In the case of `N#CCC1(n2cc(-c3ncnc4[nH]ccc34)cn2)CN([C@H]2CC[C@@H](Oc3cc(CN4CC[C@@H](O)C4)cc(C(F)(F)F)n3)CC2)C1` [Example 19, {1-(cis-4-{[4-{[(3R)-3-hydroxypyrrolidin-1-yl]methyl}-6-(trifluoromethyl)pyridin-2-yl]oxy}cyclohexyl)-3-[4-(7H-pyrrolo[2,3-d]pyrimidin-4-yl)-1H-pyrazol-1-yl]azetidin-3-yl}acetonitrile], the JAK2/JAK1 [1] is reported as >10 and the IC50 [2] is reported as < 10 nM.
In the case of `CC(C)(O)c1cc(O[C@H]2CC[C@@H](N3CC(CC#N)(n4cc(-c5ncnc6[nH]ccc56)cn4)C3)CC2)nc(C(F)(F)F)c1` [Example 18, {1-(cis-4-{[4-(1-hydroxy-1-methylethyl)-6-(trifluoromethyl)pyridin-2-yl]oxy}cyclohexyl)-3-[4-(7H-pyrrolo[2,3-d]pyrimidin-4-yl)-1H-pyrazol-1-yl]azetidin-3-yl}acetonitrile], the JAK2/JAK1 [1] is reported as >10 and the IC50 [2] is reported as < 10 nM.
With `N#CC[C@]1(n2cc(-c3ncnc4[nH]ccc34)cn2)C[C@H](N2CCC(Oc3cc(CN4CCC[C@@H]4CO)cc(C(F)(F)F)n3)CC2)C1` [Example 11, {trans-3-(4-{[4-{[(2R)-2-(hydroxymethyl)pyrrolidin-1-yl]methyl}-6-(trifluoromethyl)pyridin-2-yl]oxy}piperidin-1-yl)-1-[4-(7H-pyrrolo[2,3-d]pyrimidin-4-yl)-1H-pyrazol-1-yl]cyclobutyl}acetonitrile] the JAK2/JAK1 [1] was >10 and the IC50 [2] was < 10 nM.
In the case of `N#CC[C@]1(n2cc(-c3ncnc4[nH]ccc34)cn2)C[C@H](N2CCC(Oc3cc(CN4CC(O)C4)cc(C(F)(F)F)n3)CC2)C1` [Example 9, {trans-3-(4-{[4-[(3-hydroxyazetidin-1-yl)methyl]-6-(trifluoromethyl)pyridin-2-yl]oxy}piperidin-1-yl)-1-[4-(7H-pyrrolo[2,3-d]pyrimidin-4-yl)-1H-pyrazol-1-yl]cyclobutyl}acetonitrile], the JAK2/JAK1 [1] is reported as >10 and the IC50 [2] is reported as < 10 nM.
In the case of `N#CC[C@]1(n2cc(-c3ncnc4[nH]ccc34)cn2)C[C@H](N2CCN(C(=O)c3ccnc(C(F)(F)F)n3)CC2)C1` [Example 8, [trans-1-[4-(7H-pyrrolo[2,3-d]pyrimidin-4-yl)-1H-pyrazol-1-yl]-3-(4-{[2-(trifluoromethyl)pyrimidin-4-yl]carbonyl}piperazin-1-yl)cyclobutyl]acetonitrile], the JAK2/JAK1 [1] is reported as >10 and the IC50 [2] is reported as < 10 nM.
`N#CCC1(n2cc(-c3ncnc4[nH]ccc34)cn2)CN(C2CCN(C(=O)c3ccnc(C(F)(F)F)c3F)CC2)C1` [Example 5, {1-{1-[3-Fluoro-2-(trifluoromethyl)isonicotinoyl]piperidin-4-yl}-3-[4-(7H-pyrrolo[2,3-d]pyrimidin-4-yl)-1H-pyrazol-1-yl]azetidin-3-yl}acetonitrile] was tested, and the JAK2/JAK1 [1] was >10 and the IC50 [2] was < 10 nM.
